Measurements as given in publication PMC3543460, “Structure-Activity Relationships of the Antimicrobial Peptide Arasin 1 — And Mode of Action Studies of the N-Terminal, Proline-Rich Region” (PLoS ONE, 2013).
In brackets after ≈: the same amount, converted by molar mass. Peptide text beside a SMILES is read from it. * marks the point of attachment. Acm = CC(=O)NC*

Assays:
E. coli ATCC 25922 = assay type: cell-based, Escherichia coli; details: ATCC 25922, 24 h
Protocol: (§1) Escherichia coli (ATCC 25922), E. coli HB101, Pseudomonas aeruginosa (ATCC 27853), Staphylococcus aureus (ATCC 9144) and Corynebacterium glutamicum (ATCC 13032) were grown at 37°C in Mueller Hinton agar (MH; Difco Laboratories, Detroit, USA). The yeasts Candida albicans (ATCC 10231) and Saccharomyces cerevisiae spp and the mold Botrytis cinerea 101 [33] were cultivated on potato dextrose agar supplemented with 2% glucose at room temperature (RT).
(§2) Determination of the MIC against bacteria was performed by continuous monitoring of bacterial growth using a Bioscreen C microbiology reader (Labsystems Oy, Helsinki, Finland). The synthetic peptides were tested for antibacterial and antifungal activity at final concentrations (prepared from serial two-fold dilutions) ranging from 0.2 µM to 100 µM. The test was performed in 100-well flat-bottomed honeycomb plates, in which 50 µl peptide solution was incubated with 50 µl of a suspension of an actively growing culture of bacteria diluted to a starting concentration of 2.5×10^5 CFU/ml in Mueller Hinton Broth (MHB). The growth chamber was maintained at 37°C during the incubation period. The absorbance was measured by a turbidometric method with vertical light photometry and a wide band filter (420–580 nm). MIC was defined as the lowest concentration resulting in no visible bacterial growth after 24 h.

P. aeruginosa ATCC 27853 = assay type: cell-based, Pseudomonas aeruginosa; details: ATCC 27853, 24 h
Protocol: as §1, §2

C. glutamicum ATCC 13032 = assay type: cell-based, Corynebacterium glutamicum; details: ATCC 13032, 24 h
Protocol: as §1, §2

S. aureus ATCC 9144 = assay type: cell-based, Staphylococcus aureus; details: ATCC 9144, 24 h
Protocol: as §1, §2

S. cerevisiae spp. = assay type: cell-based, Saccharomyces cerevisiae; details: 48 h
Protocol: as §1
(§3) Fungal spores were dissolved in potato dextrose broth (Difco, Lawrence, KS, USA) and the cell concentration was determined and adjusted after counting in a Bürker chamber. Botrytis cinerea was filtered through a piece of cotton before counting. An aliquot of 50 µl of fungal spores (final concentration 2×10^5 spores/ml) were inoculated in 96-well Nunclon™ microtitre plates (Nagle Nunc Int. Roskilde, Denmark) along with 50 µl of synthetic peptide dissolved in Milli-Q water. Cultures were grown in a dark moist chamber without shaking at 20°C for S. cerevisiae and B. cinerea, and at 37°C for C. albicans. Growth inhibition was determined microscopically after 48 h of incubation. Inhibitory concentrations (IC50) was defined as the lowest concentration tested which yielded less than 50% visible growth compared to the growth control (fungi). Each peptide was tested in parallels in three individual runs for the antimicrobial assays.

C. albicans ATCC 10231 = assay type: cell-based, Candida albicans; details: ATCC 10231, 48 h
Protocol: as §1, §3

B. cinerea 101 = assay type: cell-based, Botrytis cinerea; details: 101, 48 h
Protocol: as §1, §3

E. coli HB101 [1] = assay: Bactericidal assay (killing kinetics, colony counts); assay type: cell-based, Escherichia coli; details: 50% MHB, 1×10^6 CFU/ml, 37°C
Protocol: During incubation, aliquots were removed at different time intervals, washed in buffered high salt solution (10 mM Na-phosphate, 400 mM NaCl, 10 mM MgCl2), diluted and plated on MH plates. The number of bacterial CFU was determined after approximately 48 h of incubation at 37°C.

[2] = system: E. coli HB101 constitutively expressing the luxCDABE operon; assay: Cell viability assay (luxCDABE luminescence); assay type: cell-based, Escherichia coli; details: 50% MH, OD600 0.2, 30°C
Protocol: E.coli HB101 was transformed with the plasmid pCGLS-11 to enable constitutive bacterial luciferase expression from the luxCDABE operon. The resulting strain was used for cell viability assays as follows. An overnight culture in MH medium with ampicillin (100 µg/ml) was pelleted at 3000×g for 10 min and washed in MH medium before re-suspending the cells in 50% MH medium with a final OD600 of approximately 0.2. After 30 min of incubation at 30°C the cells were again adjusted to an OD600 of 0.2. An aliquot of 95 µl of bacterial solution was dispensed into each well of a black 96 well microtiter plate with transparent bottom (Falcon, Bredford, MA, USA). To achieve the indicated concentrations, a multi-channel pipette was used to add 5 µl of a two-fold dilution series of peptide solution in water to 8 wells simultaneously. The plate was loaded into a Perkin-Elmer Envision microtiter plate reader immediately after addition of the peptide (arasin 1(1–23), PR-39(1–26) or cecropin P1) and the measurement started 30 sec later because of handling events and 2 seconds of shaking inside the plate reader. Light production and growth (OD595) of the sensor bacteria was followed for 3 h under repeated shaking cycles before each measurement at 30°C.

[3] = system: E. coli HB101 expressing eukaryotic luciferase lucGR; assay: Membrane integrity assay I (D-luciferin influx, lucGR luciferase); assay type: cell-based, Escherichia coli
Description: Escherichia coli HB101 was transformed with the plasmids pCSS962 and the helper plasmid pGB3 to allow for constitutive expression of the eukaryotic luciferase gene lucGR. The resulting strain was isogenic to the other E. coli strains used. The membrane permeabilization assay used is a modification of the protocol described by Virta et al.. The assay is based on E. coli cells, expressing a eukaryotic luciferase, depending on externally added D-luciferin as a substrate to emit light. At neutral pH the bacterial cytoplasmic membrane efficiently prevents uptake of external D-luciferin. However, disruption of the membrane by e.g. a membrane active AMP enhances D-luciferin influx and thereby induces bacterial light emission. Preparation of the cells and the assay plate was done as described for the viability assay above. However, chloramphenicol (30 µg/ml) was added in addition to ampicillin to the overnight culture, and D-luciferin sodium-salt (Biosynth, Staad, Switzerland) was added to the bacteria to final concentration of 1 mM. To allow shorter measurement intervals, only 8 wells were measured simultaneously. Arasin 1(1–23), PR-39(1–26) and cecropin P1 were tested for their membrane disruptive capacity.

E. coli HB101 [4] = assay: Membrane integrity assay II (propidium iodide, flow cytometry); assay type: cell-based, Escherichia coli; details: 50% MH, 37°C, four independent experiments
Protocol: The effect of arasin 1(1–23) and cecropin P1 on membrane permeabilization was also studied by measuring the percentage of propidium iodide (PI) positive cells by flow cytometry. Samples of 1×10^6 cells/ml of E. coli HB101 were incubated in 50% MH with peptides at 37°C for different time span. After incubation, PI (Sigma Aldrich, Saint Louis, MO, USA) was added to the peptide-treated bacteria at a final concentration of 10 µg/ml. The cells were analyzed after 4 min of incubation with PI at 37°C in the flow cytometer as described.

Chitin-binding assay = details: 50 µg peptide with 40 mg chitin, washes with 0.1 M NaCl, 1 M NaCl, 10% acetic acid at 95°C; RP-HPLC of supernatants
Protocol: The ability of arasin 1(1–23) and arasin 1(20–37)-Acm to bind chitin was estimated using a modified protocol from Kawabata et al.. Briefly, 50 µg of peptide was incubated with 40 mg chitin in 800 µl buffer (50 mM Tris-HCl, 0.1 M NaCl, pH 8.0). Sequentially chitin was incubated at RT with 800 µl buffer containing 0.1 M NaCl and 1 M NaCl, respectively, and finally at 95°C with 10% acetic acid. All incubations were performed for 10 min, and chitin was collected by centrifugation at 1000×g for 5 min between each step. Supernatants were subjected to RP-HPLC using a Sunfire™ Prep C18 column (Waters; 100 Å 5 µm; 10×250 mm, MA, USA), with a linear gradient from 8 to 60% acetonitrile and a flow of 3 ml/min over 60 min. Absorbance was monitored at 220 nm and the resulting chromatograms were compared.

E. coli = assay: Antimicrobial activity at varied MH concentration; assay type: cell-based, Escherichia coli; details: results not shown
Description: In contrast to the results from E. coli and P. aeruginosa, the C-terminal part of arasin 1(1–23) alone arasin 1(7–23) and 1(9–23) inhibits C. glutamicum and all the fungi. At the same time this antibacterial and antifungal activity is strictly dependent on a fragment between aa 13–23. This indicates a somewhat different mode of action for Gram- negative and Gram-positive bacteria, respectively. Likewise the mode of action against fungi is likely different. It is tempting to speculate that the N-terminal 5–10 amino acids might be involved in arasin 1(1–23) transfer across the outer membrane while the C-terminal part might bind the molecular target which is responsible for growth inhibition at low concentrations. The antimicrobial assays were all performed in MH or potato dextrose medium at a final concentration of 50% strength for bacteria and fungi, respectively. […] This means that the peptides are very sensitive to medium composition, and perhaps also salinity and/or ionic strength. […] In some studies, the use of diluted or poor medium instead of rich medium in MIC and mode of action studies is claimed to increase the sensitivity of the assays, [47]. The reasons of the medium-dependence have not been further evaluated, and 50% MH was used as the standard medium for the mode of action studies.

Row | Molecule | MIC E. coli ATCC 25922 (E. coli ATCC 25922) [µM] | MIC P. aeruginosa ATCC 27853 (P. aeruginosa ATCC 27853) [µM] | MIC C. glutamicum ATCC 13032 (C. glutamicum ATCC 13032) [µM] | MIC S. aureus ATCC 9144 (S. aureus ATCC 9144) [µM] | IC50 (S. cerevisiae spp.) [µM] | IC50 (C. albicans ATCC 10231) [µM] | IC50 (B. cinerea 101) [µM] | effect on viable cell count at MIC (E. coli HB101 [1]; 4 µM (MIC), up to 4 h) | reduction of viable E. coli cells (E. coli HB101 [1]; 20 µM (5×MIC), after 30 min) [log] | luminescence compared to untreated bacteria ([2]; after 10 min, at 10-fold MIC) | luminescence compared to untreated bacteria ([2]; at MIC values (5 µM)) | light emission (D-luciferin influx) at concentrations above MIC ([3]; 1 mM D-luciferin) | light emission (D-luciferin influx) at concentration around MIC ([3]; compared with cecropin P1 treatment, 1 mM D-luciferin) | time at which permeabilization peaked ([3]; high concentrations of peptide) | PI-positive (permeabilized) cells (E. coli HB101 [4]; peptide at 5×MIC (20 µM), 1×10^6 cells/ml) [%] | PI-positive (permeabilized) cells (E. coli HB101 [4]; peptide at 10×MIC (40 µM), after 15 min of treatment) | PI-positive (permeabilized) cells (E. coli HB101 [4]; peptide at MIC (4 µM), 1×10^6 cells/ml, background subtracted) [%] | binding to chitin (Chitin-binding assay) | change of antimicrobial activity against E. coli by varying the MH concentration (E. coli)
1 | CC[C@H](C)[C@H](NC(=O)[C@@H]1CCCN1C(=O)[C@H](CCCCN)NC(=O)[C@@H]1CCCN1C(=O)[C@H](CCCNC(=N)N)NC(=O)CNC(=O)[C@@H]1CCCN1C(=O)[C@H](Cc1ccccc1)NC(=O)[C@@H]1CCCN1C(=O)[C@H](CCCNC(=N)N)NC(=O)[C@@H]1CCCN1C(=O)[C@H](CCCNC(=N)N)NC(=O)CNC(=O)[C@@H]1CCCN1C(=O)[C@H](CO)NC(=O)[C@@H]1CCCN1C(=O)[C@H](Cc1c[nH]c2ccccc12)NC(=O)[C@H](CCCNC(=N)N)NC(=O)[C@@H](N)CO)C(=O)N[C@@H](Cc1ccccc1)C(=O)N[C@@H](CCCNC(=N)N)C(=O)N1CCC[C@H]1C(=O)N[C@@H](CCCNC(=N)N)C(=O)O [Arasin 1(1–23)] (H-SRWPSPGRPRPFPGRPKPIFRPR-OH; N-terminus and C-terminus assumed) | 6.3 (≈ 17.3 µg/mL) | 12.5 (≈ 34.3 µg/mL) | 0.8 (≈ 2.19 µg/mL) | >100 | 12.5 | 12.5 | 12.5 | inhibition of bacterial growth without decreasing the number of viable cells | 1 | more than 60% | more than 80% | doubling of light emission | Minimal amounts of light | approximately 10 min | 30 | approximately 75% | ~10 | strong binding of the peptide to chitin | –
2 | CC(=O)NCSC[C@H](NC(=O)[C@H](CC(N)=O)NC(=O)[C@H](CSCNC(C)=O)NC(=O)[C@@H]1CCCN1C(=O)[C@H](CCCNC(=N)N)NC(=O)[C@@H]1CCCN1C(=O)[C@H](CCCNC(=N)N)NC(=O)[C@@H](N)Cc1ccccc1)C(=O)N[C@@H](Cc1ccc(O)cc1)C(=O)N[C@@H](C)C(=O)N1CCC[C@H]1C(=O)N1CCC[C@H]1C(=O)N[C@@H](CSCNC(C)=O)C(=O)N1CCC[C@H]1C(=O)N[C@@H](CSCNC(C)=O)C(=O)N[C@@H](CC(=O)O)C(=O)N[C@@H](CCCNC(=N)N)C(=O)N[C@@H](Cc1c[nH]c2ccccc12)C(=O)O [Arasin 1(20–37)-Acm] (H-FRPRPC(Acm)NC(Acm)YAPPC(Acm)PC(Acm)DRW-OH; N-terminus and C-terminus assumed) | >100 | >100 | >100 | >100 | > 100 | > 100 | > 100 | – | – | – | – | – | – | – | – | – | – | did not bind tightly to chitin | –
3 | Bac7(1–16): fragment of the mammalian proline-rich antimicrobial peptide Bac7 (RRIRPRPPRLPRPRPR; Bactenecin 7; UniProt P19661 131-146, looked up, fragment) | – | – | – | – | – | – | – | – | – | – | – | – | – | – | – | – | – | – | did not change the antimicrobial activity
